Laboratory results taken from patent US9169255B2, “Caffeinated compounds and compositions for treatment of amyloid diseases and synucleinopathies” (ProteoTech Inc, priority 2011, dated 2015).

What was measured:
Format in all cases: biochemical
α-synuclein fibrils = biological target: T1, α-synuclein fibrils (Homo sapiens, UniProt P37840); assay: Thioflavin T fluorometry, disruption of pre-formed α-synuclein fibrils; details: 2-day incubation
T1 construct: purchased rPeptide, Bogart, Calif
Method: In this set of studies, the efficacy of certain compounds provided herein to cause a disassembly/disruption/disaggregation of pre-formed fibrils of Parkinson's disease (i.e. consisting of α-synuclein fibrils) was analyzed. For the studies described below in Parts A and B, 69 μM of α-synuclein (rPeptide, Bogart, Calif.) was first incubated at 37° C. for 4 days in 20 mM sodium acetate buffer at pH 4 with circular shaking (1,300 rpm) to cause α-synuclein aggregation and fibril formation.
In one study, Thioflavin T fluorometry was used to determine the effects of the compounds on α-synuclein fibrils. […] In this assay Thioflavin T binds specifically to fibrillar protein, and this binding produces a fluorescence enhancement at 485 nm that is directly proportional to the amount of fibrils formed.
Following initial α-synuclein fibrilization as described above, the α-synuclein (6.9 μM) mixture was then incubated at 37° C. for 2 days with shaking (200 rpm), either alone, or in the presence of one of the compounds (at test compound:α-synuclein molar ratios of 10:1, 1:1, 0.1:1, and 0.01:1) in phosphate-buffered saline, pH 7.4+0.02% sodium azide. Following 2 days of co-incubation, 50 μl (5 μg) of each incubation mixture was transferred into a 96-well microtiter plate containing 150 μl of distilled water and 50 μl of a Thioflavin T solution (i.e. 500 μM Thioflavin T in 250 mM phosphate buffer, pH 6.8). The final concentration of Thioflavin T reagent is 100 μM in 50 mM phosphate buffer, pH 6.8. The fluorescence was read at 485 nm (444 nm excitation wavelength) using an ELISA plate fluorometer. Subtraction of the signal obtained from a diluted reaction (blank) containing buffer alone or compound alone at a concentration equivalent to that of its corresponding α-synuclein-containing reaction was used to quantitate the amount of Thioflavin T fluorescence in each α-synuclein-containing reaction that is proportional to the protein fibril content in that reaction.

Aβ 1-42 [1] = biological target: T2, Aβ 1-42 (Homo sapiens, UniProt P05067); assay: Thioflavin T fluorometry, inhibition of β-sheet formation of non-fibrillar Aβ 1-42; parameters: pre-fibrillized human Aβ 1-42 (rPeptide); purchased rPeptide; details: for Thioflavin T fluorometry-% Inhibition: 24 hours
Method: To test whether the compounds can inhibit β-sheet formation of Aβ, the same assay as described in Example 5 was utilized, but the Aβ was prepared so that it is in a non-fibrillar state at the start of the assay. To achieve this non-fibrillar state, lyophilized human Aβ 1-42 (rPeptide) was dissolved to 1 mg/mL (220 μM) using 2 mM NaOH and the pH was adjusted to 10.5 with small (μL) additions of 1M NaOH. The clear solution was then frozen, re-lyophilized, and dissolved in a buffer containing 9.5 mM phosphate, 137 mM sodium chloride and 2.7 mM potassium chloride (phosphate-buffered saline; PBS) to a concentration of 2 mg/mL (440 μM) Aβ. […] The reactions containing Aβ+test compounds (or Aβ+PBS as a control for Aβ aggregation) were then incubated for 24 hours, the incubation mixtures were diluted 1:20 to 0.05 mg/mL Aβ and 50 μL of each diluted incubation mixture was transferred into a 96-well microtiter plate containing 150 μL of distilled water and 50 μL of a Thioflavin T solution (i.e. 500 μM Thioflavin T in 250 mM phosphate buffer, pH 6.8). The final concentration of Aβ was 2.2 μM and the concentration of Thioflavin T reagent was 100 μM in 50 mM phosphate buffer, pH 6.8. The fluorescence was read at 485 nm (444 nm excitation wavelength) using an ELISA plate fluorometer after subtraction with PBS buffer alone or compound alone, as blank.

Aβ 1-42 [2] = biological target: T2, Aβ 1-42; assay: Circular dichroism (CD) spectroscopy, inhibition of β-sheet formation of Aβ; details: for magnitude of the change of the ellipticity minimum at 218 nm relative to Aβ alone: 24 hours of incubation, at appropriate concentrations; for Circular Dichroism Spectroscopy -% Inhibition: 24 hours
Method: For this purpose, the Aβ reactions that were used in the Thioflavin T fluorometry assay (Part A in this Example) were assessed at 24 hours of aggregation. Aβ alone was also assessed by CD spectral analysis at t=0, prior to aggregation, (t=0, unfolded reference control). After 24 hours, reactions were diluted 20-fold in PBS and a CD spectrum for each reaction was acquired on a Jasco J-810 spectropolarimeter using a 0.1 cm path length cell. All spectra were recorded with a step size of 0.1 nm, a bandwidth of 1 nm, and an Aβ concentration of 0.05 mg/ml. The spectra were trimmed at the shortest wavelength that still provided a dynode voltage less than 600V. The trimmed spectra were then subjected to a data processing routine beginning with noise reduction by Fourier transform followed by subtraction of a blank spectrum (vehicle only without Aβ). These blank corrected spectra were then zeroed at 260 nm and the units converted from millidegrees to specific ellipticity.
Percent β-sheet was determined from processed spectra using the ellipticity minimum value at approximately 218 nm and referencing to a scale normalized to nearly fully folded and unfolded reference values, consistent with previous reports (Ramirez-Alvarado et al., J. Mol. Biol., 273:898-912, 1997; Andersen et al., J. Am. Chem. Soc., 121:9879-9880, 1999). The fully folded reference value was found by performing the described calculation on the spectrum of Aβ fibrillized for 24 hours (complete fibrillization), and assigning this difference the arbitrary value of 100% β-sheet. The unfolded reference was provided by the spectrum from the same sample at the initial time point (t=0) and ascribing the difference found here the arbitrary value of 0% β-sheet. These percent β-sheet values were then used to provide the respective relative % inhibition of β-sheet induced by the compounds at given molar ratio of test compound:Aβ.

[3] = compound:peptide molar ratio 0.01:1
[4] = compound:peptide molar ratio 0.1:1
[5] = compound:peptide molar ratio 1:1
[6] = compound:peptide molar ratio 10:1

T2 sequence (P05067 672-713 limits assumed): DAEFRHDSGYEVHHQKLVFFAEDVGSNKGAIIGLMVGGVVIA

| Compound | Thioflavin T fluorometry-% Inhibition (α-synuclein fibrils; [3]) | Thioflavin T fluorometry-% Inhibition (α-synuclein fibrils; [4]) | Thioflavin T fluorometry-% Inhibition (α-synuclein fibrils; [5]) | Thioflavin T fluorometry-% Inhibition (α-synuclein fibrils; [6]) | Thioflavin T fluorometry-% Inhibition (Aβ 1-42 [1]; compound:Aβ molar ratio 5:1) | Thioflavin T fluorometry-% Inhibition (Aβ 1-42 [1]; compound:Aβ molar ratio 10:1) | magnitude of the change of the ellipticity minimum at 218 nm relative to Aβ alone (Aβ 1-42 [2]) | inhibition of Aβ aggregation (Thioflavin T fluorometry) (Aβ 1-42 [1]; concentrations tested 50:1, 10:1 and 1:1) | Circular Dichroism Spectroscopy -% Inhibition (Aβ 1-42 [2]; compound:Aβ molar ratio 0.5:1) | Circular Dichroism Spectroscopy -% Inhibition (Aβ 1-42 [2]; compound:Aβ molar ratio 1:1) | Circular Dichroism Spectroscopy -% Inhibition (Aβ 1-42 [2]; compound:Aβ molar ratio 5:1) | Circular Dichroism Spectroscopy -% Inhibition (Aβ 1-42 [2]; compound:Aβ molar ratio 10:1) | inhibition of β-sheet formation in Aβ (CD) (Aβ 1-42 [2]; test compound:Aβ molar ratios ≧5:1) | Thioflavin T fluorometry-% Inhibition (Aβ 1-42 [1]; compound:Aβ molar ratio 1:1) |
| --- | --- | --- | --- | --- | --- | --- | --- | --- | --- | --- | --- | --- | --- | --- |
| 1,3-dimethyl-7-(3′,4′-dibenzyloxy)benzyl-8-(3′,4′-dihydroxyphenyl)xanthine [PD-154] | 7% | 10% | 25% | 43% | 0% | 33% | – | – | – | – | – | – | – | – |
| Cn1c(=O)c2c(ncn2C)n(C)c1=O [Caffeine, reference compound] | – | – | – | – | – | – | no effect | failed to inhibit | – | – | – | – | – | – |
| Cn1cnc2c1c(=O)n(Cc1ccc(O)c(O)c1)c(=O)n2Cc1ccc(O)c(O)c1 [PD-150, 7-Methyl-1,3-bis(3′,4′-dihydroxy)benzylxanthine] | 0% | 0% | 48% | 84% | – | 93% | reduced | – | 40% | 42% | 69% | 62% | at least 62% | 23% |
| Cn1c(=O)n(Cc2ccc(O)c(O)c2)c(=O)c2c1ncn2Cc1ccc(O)c(O)c1 [PD-151, 3-Methyl-1,7-bis(3′,4′-dihydroxybenzyl)xanthine] | 4% | 15% | 56% | 89% | – | 87% | reduced | – | 38% | 43% | 66% | 67% | – | 9% |
| Cn1c(=O)c2c(ncn2Cc2ccc(O)c(O)c2)n(Cc2ccc(O)c(O)c2)c1=O [PD-152] | 0% | 4% | 52% | 86% | 23% | 61% | reduced | – | 26% | 42% | 35% | 57% | – | – |
| Cn1c(=O)c2c(nc(-c3ccc(O)c(O)c3)n2C)n(C)c1=O [PD-153, 1,3,7-trimethyl-8-(3′,4′-dihydroxyoxyphenyl)xanthine] | 7% | 17% | 18% | 37% | – | – | reduced | – | – | – | 8% | 24% | – | – |
